Source: publication PMC3791449, “Mechanism of amyloid β−protein dimerization determined using single−molecule AFM force spectroscopy” (Scientific Reports, 2013)
Like-named read-outs stand apart in the source and are kept apart here.

Columns and labels:
[1] = tested on: Aβ peptides; conditions: cited from earlier work
From the text: Aberrant folding (misfolding) and aggregation of amyloid proteins are pathological hallmarks of a large class of neurodegenerative diseases, including Alzheimer's disease (AD) (reviewed in[1][2]). In AD, amyloid precursor proteins are sequentially cleaved by β−secretase and γ−secretase, producing the amyloid β−protein (Aβ)[3]. Aβ peptides contain several alloforms with varying sequences of amino acids, dependent on the cleavage sites of γ−secretase. […] Additional C−terminal modi ... || It is important to compare our data with the aggregation studies of similar Aβ peptide samples.

[2] = tested on: misfolded Aβ dimers; experiment: Dynamic force spectroscopy (DFS) of misfolded Aβ dimers; type: binding, human; conditions: for koff (dissociation rate without applied force) / xβ (potential barrier location): Bell-Evans fit; for koff (dissociation rate without applied force): extrapolated to zero force; for barrier height (ΔG) of dimer dissociation: from mean koff of independent experiments, equation (4); for dimer lifetime (1/koff): zero applied force
Procedure: The cysteinyl−peptides were covalently immobilized on the tip and the surface via flexible tethers terminated with maleimide groups. […] Peptide aggregation was minimized by using a very low peptide concentration (20 nM) during the coupling reaction with the functionalized mica surface and the tips. Probing was performed by multiple approach−retraction cycles over various spots of the mica surface.
In the DFS approach, multiple force measurements were performed at different pulling rates and the data were grouped into several clusters according to the selected loading rates. […] After extrapolating the data to the zero pulling rate, the intercept and the slope of the linear plots (DFS spectrum) produced characteristics of the complexes, including their stability (off−rate constant koff) and the energy barrier position (xβ)[20][21].
The mean values were calculated from this dataset (Supplementary Table S1) and equation (4) (see Methods) was used to extract the barrier height (ΔG), along with xβ values, to generate the energy profile for the Aβ40 dissociation process.
All cysteinyl−Aβ peptides were synthesized using 9−fluorenylmethoxycarbonyl (FMOC) chemistry and purified by reverse phase high performance liquid chromatography (RP−HPLC). […] Functionalization of AFM tips and mica substrates were prepared according to previously published procedures. Briefly, 20 nM Aβ monomers were immobilized on mica functionalized with aminopropyl silatrane (APS) via PEG 3400 tethers and on AFM tips through maleimide silatrane (MAS). For DFS study, the tip retraction speeds ranged from 100 nm/s to 4000 nm/s. The dwell time was set at 0.3 s when retraction speed reached 1000 nm/s and above. Force curves with rupture event were subject to WLC analysis, as shown below. [drawing 1] Rupture force distributions were fitted with a probability density function: [drawing 2] Dynamic force spectra were fitted with Bell−Evans model[21]: [drawing 3] The energy profiles were reconstructed according to previous papers, using the equation below. [drawing 4] Positions of interacting segments of Aβ monomers within dimers were estimated by subtracting from the measured contour lengths the lengths of all linkers and the distance between N−termini of monomers (see Fig. 1a). The contour length of PEG was estimated with the following equation[28]: [drawing 5] Where Lc(F) is the contour length, Ns is the average number of monomers, Lplanar is the length of monomers with planar conformation, Lhelical is the length of monomers with helical conformation, ΔG(F) is the free energy difference at zero appling force. The Ns is 77 ± 10 for 3400 Da PEG. The Lplanar and Lhelical are 3.58 Å and 2.8 Å, respectively. The ΔG(F) is fixed at 3 kBT. […] All error bars represent SEM. Detailed methods can be found in Supplementary Information.
A 50 mM 1−(3−aminopropyl) silatrane (APS) stock solution was prepared by dissolving the APS powder in deionized (DI) water. The 1.67 mM stock solution of maleimide−polyethylene glycol−succinimidyl valerate (MAL−PEG−SVA; 3.4 kDa Laysan Bio Inc, Arab, AL) was prepared in DMSO (Sigma−Aldrich Inc.) and stored at −20°C. The 10 mM Tris (2−carboxyethyl) phosphine (TCEP) hydrochloride (Hampton Research Inc.) and the 2.94 mM solution of maleimide silatrane (MAS) were prepared in DI water and stored at −20°C. A 10 mM stock solution of β−mercaptoethanol was prepared in 10 mM sodium phosphate, pH 7.4 (“phosphate buffer”) and kept at 4°C. Unless otherwise specified, other reagents used in the experiments were of analytical grade from Sigma−Aldrich.

[3] = tested on: Aβ42 dimers; conditions: cited from earlier work
From the text: We have developed a single−molecule atomic force microscopy (SMFS) approach enabling us to probe and characterize the interactions of the peptides and proteins in transient misfolded conformations. In this approach, the protein is end−immobilized on the AFM tip and substrate, allowing us to measure the interprotein interactions at the single−molecule level. The dynamics force spectroscopy (DFS) approach has been quite informative with respect to the lifetimes of transiently formed misfolded dimers (reviewed in[16]).

[4] = cited from earlier work
From the text: Aberrant folding (misfolding) and aggregation of amyloid proteins are pathological hallmarks of a large class of neurodegenerative diseases, including Alzheimer's disease (AD) (reviewed in[1][2]). In AD, amyloid precursor proteins are sequentially cleaved by β−secretase and γ−secretase, producing the amyloid β−protein (Aβ)[3]. Aβ peptides contain several alloforms with varying sequences of amino acids, dependent on the cleavage sites of γ−secretase.

[5] = experiment #1, retraction 100-4000 nm/s
[6] = experiment #1, retraction 100-4000 nm/s, approach 400 nm/s, trigger force 100 pN, dwell 0.3 s at ≥1000 nm/s, N-terminal Cys tethered, 20 nM coupling
[7] = experiment #2, retraction 100-4000 nm/s
[8] = experiment #3, retraction 100-4000 nm/s
[9] = mean ± SEM of three experiments
[10] = mean ± SEM of three experiments, retraction 100-4000 nm/s
[11] = mean ± SEM of three experiments, DFS

Substance	aggregation properties [1]	oligomerization pattern [1]	koff (dissociation rate without applied force) [2, 5]	xβ (potential barrier location) [2, 6]	koff (dissociation rate without applied force) ([2]; experiment #2)	xβ (potential barrier location) [2, 7]	koff (dissociation rate without applied force) ([2]; experiment #3)	xβ (potential barrier location) [2, 8]	barrier height (ΔG) of dimer dissociation [2]	koff (dissociation rate without applied force) [2, 9]	xβ (potential barrier location) [2, 10]	dimer lifetime (1/koff) [2, 11]	segments involved in dimer formation ([3]; in the absence of Cu^2+ cations)	segments involved in dimer formation ([3]; with Cu^2+ cations)	toxicity compared with other alloforms [4]	toxicity of oligomers / aggregates [4]	lifetime increase of dimer vs WT counterpart ([2]; DFS, [VPV] mutant vs wild type)
Aβ40: alloform of human amyloid β−protein; cysteinyl−Aβ peptide, Cys residue placed at the N−terminus	similar	rapid equilibrium with coexisting monomers, dimers, trimers, and tetramers	9.4 s⁻¹	0.203 nm	4.7 s⁻¹	0.257 nm	12.9 s⁻¹	0.206 nm	27.3 kBT	9.0 ± 2.4 s⁻¹	0.222 ± 0.018 nm	0.11 s					
Aβ42: alloform of human amyloid β−protein with two additional C−terminal residues; cysteinyl−peptide		prefers to form a pentamer/hexamer structure (paranucleus)		0.299 nm		0.260 nm		0.262 nm			0.274 ± 0.013 nm		formed dimers via the C−terminal segments	dimer formation involves the N−terminal segments	appears to be the most toxic		
[VPV]Aβ40: Aβ40 mutant with VPV substitutions (Gly33Val−Val36Pro−Gly38Val); cysteinyl−peptide			2.2 s⁻¹	0.361 nm	1.7 s⁻¹	0.293 nm	1.9 s⁻¹	0.262 nm	28.8 kBT	1.9 ± 0.1 s⁻¹	0.305 ± 0.029 nm	0.53 s				elevated neurotoxicity	
[VPV]Aβ42: Aβ42 with VPV substitutions (Gly33Val−Val36Pro−Gly38Val); cysteinyl−peptide			1.1 s⁻¹	0.451 nm	2.1 s⁻¹	0.337 nm	1.5 s⁻¹	0.387 nm	29.0 kBT	1.6 ± 0.3 s⁻¹	0.392 ± 0.034 nm	0.63 ± 0.12 s					more than three times higher
